These results are taken from ChEMBL document CHEMBL1147712, “Triketoacid inhibitors of HIV-integrase: a new chemotype useful for probing the integrase pharmacophore” (Bioorg Med Chem Lett, 2006).

Calls of active or inactive are those of the source. The rule behind the calls is not given here.

The target in test [1] is T1, Human immunodeficiency virus type 1 integrase (Human immunodeficiency virus 1, UniProt Q7ZJM1).
Test [2] concerns the target T1, Human immunodeficiency virus type 1 integrase. This is another data set of the same source.
In another test the test system is Enterobacteria phage T3. In words: Inhibition of T3 polymerase.
For test [3], the system named is Human immunodeficiency virus 1. Nature of the test: Antiviral activity against HIV1 NL4-3 T66I mutant. Particulars: Human immunodeficiency virus 1, NL4-3. Format: functional, organism-based.
For test [4], the system named is Human immunodeficiency virus 1. Nature of the test: Antiviral activity against HIV1 T66I, L172F mutant. Format: functional, organism-based.
The test system of test [5] is Human immunodeficiency virus 1. In words: Antiviral activity against HIV1 V151A, V165I mutant. It is filed as functional, organism-based.
Test [6] has as its system Respiratory syncytial virus. In words: Antiviral activity against RSV. Format: functional, organism-based.
Test [7] has as its target Genome polyprotein (Bovine viral diarrhea virus (strain CP7) (BVDV) (Mucosal diseasevirus)) (UniProt Q96662). In words: Inhibition of BVDV polymerase. Particulars: Bovine viral diarrhea virus 1.
Test [8] deals with DNA polymerase I (Escherichia coli) (UniProt P00582). In words: Inhibition of Klenow fragment.
The target in test [9] is T1, Human immunodeficiency virus type 1 integrase. In words: Inhibition of HIV1 recombinant integrase in pre-integration complex.
The target in test [10] is Human immunodeficiency virus type 1 reverse transcriptase (Human immunodeficiency virus 1) (UniProt Q72547). In words: Inhibition of HIV-RT.
The target of test [11] is Human immunodeficiency virus type 1 protease (Human immunodeficiency virus 1) (UniProt Q72874). Nature of the test: Inhibition of HIV protease.
For a further test, the system named is Enterovirus. Nature of the test: Antiviral activity against Rhinovirus. It is filed as functional, organism-based.
For test [12], the system named is Human immunodeficiency virus 1. In words: Antiviral activity against wild-type HIV1 NL4-3. Format: functional, organism-based. As to conditions: Human immunodeficiency virus 1, NL4-3.
Test [13] deals with Bovine viral diarrhea virus 1. In words: Antiviral activity against BVDV. It is filed as functional, organism-based.
The subject of test [14] is Human immunodeficiency virus 1. In words: Antiviral activity against HIV1. It is filed as functional, organism-based.

The molecule `O=C(CC(=O)C(=O)O)CC(=O)c1ccc(-c2ccccc2)cc1` gave an IC50 in test [1] of 2 µM.

As for `O=C(CC(=O)c1nnn[nH]1)CC(=O)c1ccccc1Cl`, the half-maximal inhibitory concentration (IC50) in [1] worked out at 125 µM.

With `O=C(CC(=O)C(=O)O)CC(=O)c1ccccc1F`, it took 3 µM to reach half-maximal inhibition in [1] (IC50).

Take `O=C(O)C(=O)/C=C(\O)c1c[nH]c2ccc(Cl)cc12`: the IC50 came to 80 nM in [2] and 0.4 µM in [1].

`O=C(CC(=O)C(=O)O)CC(=O)c1cccnc1`: the IC50 in test [1] was > 300 µM.

As for `O=C(/C=C(\O)C(=O)O)CCc1ccccc1Cl`, the IC50 in test [1] came out at 26 µM.

In test [1], `O=C(CC(=O)C(=O)O)CC(=O)c1ccccc1C(F)(F)F` had an IC50 of 6 µM.

With `O=C(CC(=O)C(=O)O)CC(=O)c1ccc2ccccc2c1`, in [1], it took 6 µM to reach half-maximal inhibition (IC50).

Molecule `O=C(/C=C(\O)C(=O)O)CCc1ccc(Cl)c(Cl)c1` returned an IC50 in test [2] of 10 nM.

Molecule `O=C(CCc1ccccc1Cl)CC(=O)C(=O)O` yielded a 50% inhibitory concentration (IC50) in test [1] of 9 µM.

In [1], `O=C(/C=C(\O)C(=O)O)CCc1ccccc1` returned an IC50 of 30 µM.

With `O=C(CC(=O)C(=O)O)CC(=O)c1ccccc1Cl`, the outcome (in the test on Enterobacteria phage T3; in [6]; in test [7]; in test [8]; in test [10]; in [11]) was inactive. Further, the result (with Enterovirus; in test [13]) was inactive. Moreover, the EC50 in test [3] is > 200 µM; in test [4] it was > 200 µM; in test [5] it was > 200 µM; in [12] it was 55 µM; in [14], 120 µM. In addition, the half-inhibitory concentration (IC50) in [2] is 200 nM; in test [9], 600 nM; in test [1], 1 µM.

Molecule `O=C(CC(=O)C(=O)O)CC(=O)c1cccc(Cl)c1` registered an IC50 in [1] of 8 µM.

`O=C(CC(=O)C(=O)O)CC(=O)c1cccc2ccccc12` yielded an IC50 in [1] of 0.6 µM.

On to `O=C(CC(=O)C(=O)O)CC(=O)c1ccccn1`, for which, in [1], the midpoint of inhibition, the IC50, lay at 100 µM.

For the molecule `COc1ccccc1C(=O)CC(=O)CC(=O)C(=O)O`, the midpoint of inhibition in test [1], the IC50, lay at 4 µM.

Turning to `O=C(CC(=O)c1cccn1Cc1ccc(F)cc1)c1nnn[nH]1`, the IC50 in test [1] was > 125 µM.

On to `O=C(/C=C(\O)C(=O)O)CCc1ccccc1Br`, for which half-maximal inhibition in [1] (IC50) required 5 µM.

Regarding `O=C(CC(=O)C(=O)O)CC(=O)c1ccccc1`, in test [1], the IC50 worked out at 80 µM.

With `O=C(CC(=O)C(=O)O)CC(=O)c1ccccc1OCc1ccccc1`, the IC50 in test [1] came to 7 µM.
